This note sets out measurements from patent US20240246941A1, “SUBSTITUTED 4-(3-AMINOPROP-1-YL)AMINOQUINOLINE ANALOGS AS MODULATORS OF MELANOMA-ASSOCIATED ANTIGEN 11 UBIQUITIN LIGASE” (ST. JUDE CHILDREN'S RESEARCH HOSPITAL, INC., priority 2020, published 2024).

interaction between GST-MAGEA11 MHD and FAM-PCF11_4 peptide (MAGE-A11:PCF11), sequence (P43364 218-429): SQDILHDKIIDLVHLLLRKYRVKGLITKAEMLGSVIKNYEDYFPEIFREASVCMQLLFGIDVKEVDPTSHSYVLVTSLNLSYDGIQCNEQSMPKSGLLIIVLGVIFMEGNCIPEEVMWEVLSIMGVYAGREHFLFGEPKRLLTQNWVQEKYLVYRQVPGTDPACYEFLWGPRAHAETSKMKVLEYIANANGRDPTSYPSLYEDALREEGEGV

One test addresses interaction between GST-MAGEA11 MHD and FAM-PCF11_4 peptide (MAGE-A11:PCF11) (Homo sapiens (Human), UniProt P43364). The test is described as follows: TR-FRET dose response competition assay for disruption of MAGE-A11:PCF11 binding. The following applies: Dose response TR-FRET screening of nine scaffold groups against MAGE-A11:PCF11; read-out: consensus IC50. The procedure, abridged: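 Competition TR-FRET at room temperature in 50 mM Tris pH 7.5, 20 mM MgCl2, 0.1 mg/ml BSA, 1 mM DTT: final 5 nM GST-MAGEA11 MHD, 5 nM Tb-anti-GST, 200 nM FAM-PCF11_4, 90 min. Ratio 520/490 nm converted to % inhibition; IC50 from sigmoidal fit.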
(In TR-FRET formats the signal depends on donor and acceptor labels being close together.)
On to `COc1ccc(CN2C(=O)c3ccccc3NC2c2ccc(F)cc2)cc1` (stereo not shown) [SJ000510740-1], for which the half-inhibitory concentration (IC50) is 69.9 µM.
Regarding `COc1ccc(CN2C(=O)c3ccccc3NC2c2ccc(C)cc2)cc1` (stereo not shown) [SJ000510741-1], the IC50 is 69.9 µM.
On to `COc1ccc(C2Nc3ccccc3C(=O)N2Cc2ccc(F)cc2)cc1` (stereo not shown) [SJ000510742-1], for which the IC50 amounted to 69.9 µM.
On to `COc1ccc(C2Nc3ccccc3C(=O)N2Cc2ccc(C)cc2)cc1` (stereo not shown) [SJ000510743-1], for which the 50% inhibitory concentration (IC50) turned out to be 69.9 µM.
With `COc1ccc(CN2C(=O)c3ccccc3NC2c2ccc(OC)cc2)cc1` (stereo not shown) [SJ000510744-1], the IC50 was 69.9 µM.
As to `COc1ccc(CN2C(=O)c3ccccc3NC2c2ccc([N+](=O)[O-])cc2)cc1` (stereo not shown) [SJ000510745-1], the IC50 amounted to 69.9 µM.
As for `CN(Cc1ccno1)C(=O)c1ccc2c(c1)c1ccccc1n2C` [SJ000516830-1], the IC50 came out at 69.9 µM.
For the compound `Cc1cc(-c2nc3c(c(=O)[nH]c(=O)n3C)n2C)ccc1Cl` [SJ000517919-1], the IC50 came to 69.9 µM.
As to `Cn1c(-c2ccc3c(c2)OCO3)nc2c1c(=O)[nH]c(=O)n2C` [SJ000518479-1], the IC50 was found to be 69.9 µM.
`FC(F)(F)c1ccccc1CNCCCNc1ccnc2cc(Cl)ccc12` [SJ000520908-2]: the half-inhibitory concentration (IC50) was 69.9 µM.
With `Clc1ccc2c(NCCCNCc3ccc4[nH]ccc4c3)ccnc2c1` [SJ000520909-2], the 50% inhibitory concentration (IC50) turned out to be 67.1 µM.
On the same count and under the same terms, the figure for `Fc1c(F)c(F)c(CNCCCNc2ccnc3cc(Cl)ccc23)c(F)c1F` [SJ000520910-1] is 69.9 µM.
Take `Cc1cc(C)c(CNCCCNc2ccnc3cc(Cl)ccc23)c(C)c1` [SJ000520911-2]: the IC50 is 68.1 µM.
In the case of `FC(F)(F)Oc1cccc(CNCCCNc2ccnc3cc(Cl)ccc23)c1` [SJ000521022-2], the concentration for half-maximal inhibition (IC50) was determined as 69.9 µM.
Consider `FC(F)(F)c1cccc(CNCCCNc2ccnc3cc(Cl)ccc23)c1` [SJ000521024-1], for which the IC50 came out at 69.9 µM.
With `FC(F)(F)Oc1ccc(CNCCCNc2ccnc3cc(Cl)ccc23)cc1` [SJ000521025-1], the IC50 was 69.9 µM.
Consider `COc1ccc(F)c(CNCCCNc2ccnc3cc(Cl)ccc23)c1` [SJ000521030-1], for which the IC50 was determined as 69.9 µM.
With `Fc1cccc(C(F)(F)F)c1CNCCCNc1ccnc2cc(Cl)ccc12` [SJ000521031-1], the IC50 was determined as 69.9 µM.
With `COc1ccc(OC(F)(F)F)cc1CNCCCNc1ccnc2cc(Cl)ccc12` [SJ000521035-1], the 50% inhibitory concentration (IC50) is 69.9 µM.
For the compound `COc1ccc(C(F)(F)F)cc1CNCCCNc1ccnc2cc(Cl)ccc12` [SJ000521036-1], the IC50 is 69.9 µM.
The same measure, in the same setting: the value for `CCc1ccc(CNCCCNc2ccnc3cc(Cl)ccc23)cc1` [SJ000521039-1] was 69.9 µM; that for `FC(F)(F)Oc1cccc(CNCCCNc2ccnc3cc(C(F)(F)F)ccc23)c1` [SJ000521045-2] was 69.9 µM.
Still for that read-out and setting: the figure for `FC(F)(F)c1cccc(CNCCCNc2ccnc3cc(C(F)(F)F)ccc23)c1` [SJ000521047-1] is 69.9 µM.
Still for that read-out and setting: the value for `FC(F)(F)c1ccc2c(NCCCNCc3cccc4c3OCO4)ccnc2c1` [SJ000521048-1] was 69.9 µM.
On to `FC(F)(F)c1ccc2c(NCCCNCc3ccccc3C(F)(F)F)ccnc2c1` [SJ000521049-1], for which the IC50 came to 69.9 µM.
In the case of `FC(F)(F)Oc1ccc(CNCCCNc2ccnc3cc(C(F)(F)F)ccc23)cc1` [SJ000521050-1], the IC50 amounted to 69.9 µM.
As for `COc1cccc(F)c1CNCCCNc1ccnc2cc(C(F)(F)F)ccc12` [SJ000521051-1], the IC50 turned out to be 69.9 µM.

Still in this test, the particulars now being: Table 5, dose response TR-FRET screening of 59 quinoline compounds against MAGE-A11:PCF11; read-out: TR-FRET IC50.
In the case of `Clc1ccc2c(NCCCN(Cc3ccccc3)Cc3ccc4[nH]ccc4c3)ccnc2c1` [SJ000520430-1], the IC50 amounted to 41.7 µM.
Still for that read-out and setting: the value for `Clc1ccc2c(NCCCN(Cc3ccccc3)Cc3c[nH]c4ccccc34)ccnc2c1` [SJ000520433-1] was above 70 µM; that for `Clc1ccc2c(NCCCCN(Cc3ccccc3)Cc3ccc4[nH]ccc4c3)ccnc2c1` [SJ000520434-1] was 23.4 µM; that for `COC1CCC(C(F)(F)F)C1CN(CCCCNc1ccnc2cc(Cl)ccc12)Cc1ccccc1` (stereo not shown) [SJ000520444-1] was above 70 µM.
Regarding `Clc1ccc2c(NCCCCN(Cc3ccccc3)Cc3csc4ccccc34)ccnc2c1` [SJ000520446-1], the IC50 is above 70 µM.
Still for that read-out and setting: the figure for `Cc1ccc(F)cc1CN(CCCCNc1ccnc2cc(Cl)ccc12)Cc1ccccc1` [SJ000520449-1] is above 70 µM.
`FC(F)(F)Oc1ccc(CN(CCCCNc2ccnc3cc(Cl)ccc23)Cc2ccccc2)cc1` [SJ000520451-1]: the half-inhibitory concentration (IC50) was above 70 µM.
As to `FC(F)(F)Oc1cccc(CN(CCCCNc2ccnc3cc(Cl)ccc23)Cc2ccccc2)c1` [SJ000520457-1], the IC50 was above 70 µM.
The same measure, in the same setting: the value for `CCCN(CCCNc1ccnc2cc(C(F)(F)F)ccc12)CCC(C)(C)C` [SJ000520476-1] was above 70 µM; that for `CCCN(CCCNc1ccnc2cc(C(F)(F)F)ccc12)Cc1ccc(CC)cc1` [SJ000521009-2] was above 70 µM.
On to `COC(=O)CCCCCNCCCNc1ccnc2cc(Cl)ccc12` [SJ000521021-1], for which the IC50 is 31.4 µM.
On the same count and under the same terms, the figure for `Clc1ccc2c(NCCCNCc3cc4ccccc4s3)ccnc2c1` [SJ000521032-1] is above 70 µM; for `Clc1ccc2c(NCCCNCc3csc4ccccc34)ccnc2c1` [SJ000521033-1] it is above 70 µM.

The test is the same for the next values; noted with them: Table 8, representative compounds; read-out: TR-FRET IC50.
Regarding `COc1cc(C)c2c(Oc3cccc(C(F)(F)F)c3)c(OC)cc(NC(C)CCCN)c2n1` (stereo not shown) [SJ000518991], the half-maximal inhibitory concentration (IC50) is above 65.7 µM.
The same measure, in the same setting: the value for `CN(C)C1=C2C=CC=CC2C(CNCCCNc2ccnc3cc(Cl)ccc23)C=C1` (stereo not shown) [SJ000520354] was 69.9 µM; that for `FC(F)(F)c1ccccc1CNCCCNc1ccnc2cc(Cl)ccc12` [SJ000520908] was 69.9 µM.
For `Fc1c(F)c(F)c(CNCCCNC2CCNC3(Cl)CCC23)c(F)c1F` (stereo not shown) [SJ000520910], the concentration for half-maximal inhibition (IC50) turned out to be 69.9 µM.
`Cc1cc(C)c(CNCCCNc2ccnc3cc(Cl)ccc23)c(C)c1` [SJ000520911]: the IC50 was 68.1 µM.
On the same count and under the same terms, the figure for `FC(F)(F)Oc1cccc(CNCCCNc2ccnc3cc(Cl)ccc23)c1` [SJ000521022] is 69.9 µM; for `FC(F)(F)c1cccc(CNCCCNc2ccnc3cc(Cl)ccc23)c1` [SJ000521024] it is 69.9 µM; for `FC(F)(F)Oc1ccc(CNCCCNc2ccnc3cc(Cl)ccc23)cc1` [SJ000521025] it is 69.9 µM.
Take `COc1ccc(F)c(CNCCCNc2ccnc3cc(Cl)ccc23)c1` [SJ000521030]: the concentration for half-maximal inhibition (IC50) was determined as 69.9 µM.
On to `Fc1cccc(C(F)(F)F)c1CNCCCNc1ccnc2cc(Cl)ccc12` [SJ000521031], for which the half-inhibitory concentration (IC50) worked out at 69.9 µM.
For `COc1ccc(OC(F)(F)F)cc1CNCCCNc1ccnc2cc(Cl)ccc12` [SJ000521035], the half-maximal inhibitory concentration (IC50) was determined as 69.9 µM.
In the case of `COc1ccc(C(F)(F)F)cc1CNCCCNc1ccnc2cc(Cl)ccc12` [SJ000521036], the half-maximal inhibitory concentration (IC50) worked out at 69.9 µM.
As for `CCc1ccc(CNCCCNc2ccnc3cc(Cl)ccc23)cc1` [SJ000521039], the IC50 stood at 69.9 µM.
Same read-out and setting: the value for `FC(F)(F)Oc1cccc(CNCCCNc2ccnc3cc(C(F)(F)F)ccc23)c1` [SJ000521045] was 69.9 µM; that for `FC(F)(F)c1cccc(CNCCCNc2ccnc3cc(C(F)(F)F)ccc23)c1` [SJ000521047] was 69.9 µM.
Regarding `FC(F)(F)c1ccc2c(NCCCNCc3cccc4c3OCO4)ccnc2c1` [SJ000521048], the IC50 is 69.9 µM.
Same read-out and setting: the figure for `FC(F)(F)c1ccc2c(NCCCNCc3ccccc3C(F)(F)F)ccnc2c1` [SJ000521049] is 69.9 µM; for `FC(F)(F)Oc1ccc(CNCCCNc2ccnc3cc(C(F)(F)F)ccc23)cc1` [SJ000521050] it is 69.9 µM.

By IC50 is commonly meant the midpoint of a concentration-inhibition curve.
